The values below come from publication PMC8401167, “Point Mutations and Cytochrome P450 Can Contribute to Resistance to ACCase-Inhibiting Herbicides in Three Phalaris Species” (Plants, 2021).

Read-outs that look alike come from different tables or passages of the source.

Common to all, as to assay: […]bicarbonate incorporation into malonyl-CoA
What all share (type): biochemical

Assay [1] addresses T1, ACCase (Phalaris paradoxa).
T1 construct: cytosolic form not separated
Particulars: 1.5 mM ATP, 5 mM acetyl-CoA, 5 mM MgCl2, 15 mM NaH14CO3, pH 8.3, 34 °C, S biotype, read-out: I50.

Assay [2] concerns the target T2, ACCase (Phalaris brachystachys).
T2 construct: cytosolic form not separated
Particulars: 1.5 mM ATP, 5 mM acetyl-CoA, 5 mM MgCl2, 15 mM NaH14CO3, pH 8.3, 34 °C, S biotype, read-out: I50.

The target of assay [3] is T3, ACCase (Phalaris minor).
T3 construct: cytosolic form not separated
Particulars: 1.5 mM ATP, 5 mM acetyl-CoA, 5 mM MgCl2, 15 mM NaH14CO3, pH 8.3, 34 °C, S biotype, read-out: I50.

For assay [4], the target named is T2, ACCase (Phalaris brachystachys). Particulars: 1.5 mM ATP, 5 mM acetyl-CoA, 5 mM MgCl2, 15 mM NaH14CO3, pH 8.3, 34 °C, R biotype (zygosity not given), stated gain, read-out: I50.
Setting [5] is: table labels herbicide diclofop-methyl, methods say DM acid.

Consider `CC(Oc1ccc(Oc2ccc(Cl)cc2Cl)cc1)C(=O)O` (stereo not drawn) [DM acid], for which the IC50 in assay [1] (setting [5]) was determined as 590 ± 230 nM; in assay [2] (setting [5]), 320 ± 50 nM; in assay [3] (setting [5]), 850 ± 30 nM; in assay [4] (setting [5]) it was 6650 ± 780 nM.

In the case of `CCCC(=NOCC)C1=C(O)CC(C2CCCSC2)CC1=O` (stereo not drawn) [cycloxydim], the IC50 was determined as 460 ± 60 nM in assay [1], 220 ± 20 nM in assay [2], 670 ± 910 nM in assay [3] and 2400 ± 340 nM in assay [4].

On to `CCc1cc(C)cc(CC)c1-c1c(OC(=O)C(C)(C)C)n2n(c1=O)CCOCC2` [pinoxaden], for which the IC50 in assay [1] came out at 660 ± 90 nM; in assay [2] it was 780 ± 10 nM; in assay [3], 590 ± 70 nM; in assay [4], 14400 ± 1900 nM.
